# Measurements taken from article PMC7318697 (2020).
# Tests used:
# [1] = system: telo23 (DNA, G4) TAGGGTTAGGGTTAGGGTTAGGG; assay: 1H imino NMR titration; conditions: 20 mM potassium phosphate, 70 mM KCl; pH 7.0, 298 K, 90% H2O/10% D2O; DNA 185 μM
# [2] = system: Febr1T (DNA, G4) GGGCAGGGGGTGATGGGGAGGAGCCAGGG; assay: FRET melting; conditions: 10 mM KCl, 90 mM LiCl; 10 mM Li cacodylate; ligand 5 μM; DNA 0.2 μM
# [3] = system: telo23 (DNA, G4) TAGGGTTAGGGTTAGGGTTAGGG; assay: UV/Vis titration; conditions: K+ (100 mM potassium phosphate), pH 7.4, ligand 10 μM; for K d: apparent, independent and equivalent sites
# [4] = system: F21T (DNA, G4) GGGTTAGGGTTAGGGTTAGGG; assay: FRET melting; conditions: 10 mM Li cacodylate, ligand 5 μM, DNA 0.2 μM
# [5] = system: FmycT (DNA, G4) TTGAGGGTGGGTAGGGTGGGTAA; assay: FRET melting; conditions: 1 mM KCl, 99 mM LiCl; 10 mM Li cacodylate; ligand 5 μM; DNA 0.2 μM
# [6] = system: F10T (DNA, hairpin, hexaethylene glycol (HEG) linker between nucleotides 10 and 11) TATAGCTATATATAGCTATA; assay: FRET melting; conditions: 10 mM KCl, 90 mM LiCl; 10 mM Li cacodylate; ligand 5 μM; DNA 0.2 μM
binding [1],ΔT m [2],K d [3],"ΔT m ([4]; 10 mM KCl, 90 mM LiCl)",binding ([3]; Kd too weak for accurate determination),ΔT m [5],ΔT m ([4]; 100 mM NaCl),ΔT m [6],Compound
yes,22 °C,,,,,,,C[n+]1ccc(-c2ccc3c(c2)/C(=C2\CCc4ccc(-c5cc[n+](C)cc5)cc42)CC3)cc1
yes,9 °C,70 µM,,,,,,C[n+]1ccc(-c2ccc3c(c2)/C(=C2/CCc4ccc(-c5cc[n+](C)cc5)cc42)CC3)cc1
yes,17 °C,2 µM,28 °C,,30 °C,19 °C,3 °C,C[n+]1ccc(-c2ccc3c(c2)CC/C3=C2/CCc3cc(-c4cc[n+](C)cc4)ccc32)cc1

# The next lines start with the compound.
Compound,binding [1],ΔT m [2],K d [3],"ΔT m ([4]; 10 mM KCl, 90 mM LiCl)",binding ([3]; Kd too weak for accurate determination),ΔT m [5],ΔT m ([4]; 100 mM NaCl),ΔT m [6]
CN1CCN(CCCNc2ccc3c(c2)/C(=C2\CCc4ccc(NCCCN5CCN(C)CC5)cc42)CC3)CC1,,,70 µM,6 °C,,,,
CN1CCN(CCCNc2ccc3c(c2)/C(=C2/CCc4ccc(NCCCN5CCN(C)CC5)cc42)CC3)CC1,,,,0 °C,weak,0 °C,0 °C,0 °C
